From publication PMC6151383 (Molecules : A Journal of Synthetic Chemistry and Natural …, 2017)
Values after ≈ are worked out from the molar mass of the structure shown. Like-named read-outs stand apart in the source and are kept apart here.

Columns and labels:
[1] = test system: Trichosporon asahii 1188; test: Antifungal microdilution broth MIC, T. asahii; type: cell-based; conditions: Trichosporon asahii, 1188; 48 h incubation; read-out: MIC TA 48 h
[2] = test system: Candida albicans ATCC 44859; test: Antifungal microdilution broth MIC, C. albicans; type: cell-based; conditions: ATCC44859, 48 h incubation, read-out: MIC CA 48 h
[3] = test system: Pseudomonas aeruginosa CCM 1961; test: Antibacterial microdilution broth MIC, P. aeruginosa; type: cell-based; conditions: Pseudomonas aeruginosa, CCM1961; 48 h incubation; read-out: MIC PA 48 h
[4] = test system: Mycobacterium tuberculosis 331/88 (H37Rv); test: In vitro antimycobacterial MIC, M. tuberculosis; type: cell-based
[5] = test system: Candida sp.; test: Selectivity index for Candida sp. (IC50 HepG2/MIC); type: cell-based; conditions: all Candida species
[6] = test system: Trichophyton interdigitale 445; test: Antifungal microdilution broth MIC, T. interdigitale; type: cell-based
[7] = test system: M. kansasii 6509/96; test: In vitro antimycobacterial MIC, M. kansasii clinical isolate; type: cell-based; conditions: Mycobacterium kansasii
[8] = test system: Candida tropicalis 156; test: Antifungal microdilution broth MIC, C. tropicalis; type: cell-based; conditions: Candida tropicalis, 156; 48 h incubation; read-out: MIC CT 48 h
[9] = test system: Aspergillus fumigatus 231; test: Antifungal microdilution broth MIC, A. fumigatus; type: cell-based; conditions: Aspergillus fumigatus, 231; 48 h incubation; read-out: MIC AF 48 h
[10] = test system: Mycobacterium avium 330/88; test: In vitro antimycobacterial MIC, M. avium; type: cell-based
[11] = test system: Enterococcus faecalis J 14365/08; test: Antibacterial microdilution broth MIC, E. faecalis; type: cell-based; conditions: Enterococcus faecalis, J14365/08; 48 h incubation; read-out: MIC EF 48 h
[12] = test system: Lichtheimia corymbifera 272; test: Antifungal microdilution broth MIC, L. corymbifera; type: cell-based; conditions: Lichtheimia corymbifera, 272; 48 h incubation; read-out: MIC LC 48 h
[13] = test system: Escherichia coli CCM 4517; test: Antibacterial microdilution broth MIC, E. coli; type: cell-based; conditions: Escherichia coli, CCM4517; 48 h incubation; read-out: MIC EC 48 h
[14] = test system: Staphylococcus epidermidis H 6966/08; test: Antibacterial microdilution broth MIC, S. epidermidis; type: cell-based; conditions: Staphylococcus epidermidis, H6966/08; 48 h incubation; read-out: MIC SE 48 h
[15] = test system: ESBL-positive Klebsiella pneumoniae J 14368/08
[16] = test system: Staphylococcus aureus CCM 4516/08; test: Antibacterial microdilution broth MIC, S. aureus; type: cell-based; conditions: Staphylococcus aureus, CCM4516; 48 h incubation; read-out: MIC SA 48 h
[17] = test system: Klebsiella pneumoniae D 11750/08
[18] = test system: Candida glabrata 20/I; test: Antifungal microdilution broth MIC, C. glabrata; type: cell-based; conditions: Nakaseomyces glabratus, 48 h incubation, read-out: MIC CG 48 h
[19] = test system: M. tuberculosis and NTM; test: Antimycobacterial activity, panel; type: cell-based; conditions: Mycobacterium tuberculosis
[20] = test system: Candida krusei E28; test: Antifungal microdilution broth MIC, C. krusei; type: cell-based; conditions: Pichia kudriavzevii, E28; 48 h incubation; read-out: MIC CK 48 h
[21] = test system: Gram-positive and Gram-negative bacteria; conditions: both Gram-positive and Gram-negative bacteria; cited from earlier work
[22] = test system: Mycobacterium kansasii 235/80; test: In vitro antimycobacterial MIC, M. kansasii 235/80; type: cell-based

O=S(=O)(Nc1ncccn1)c1ccc(N=Cc2ccccc2O)cc1 [Compound 2a, 4-[(2-Hydroxybenzylidene)amino]-N-(pyrimidin-2-yl)benzenesulfonamide]
MIC [1]: > 500 µM | MIC [2]: > 500 µM | MIC [3]: 500 µM (≈ 177 µg/mL) | MIC ([4]; 336 h, 14 d incubation, read-out: MIC Mtb. 331/88 14 d): 16 µM (≈ 5.67 µg/mL) | MIC ([4]; 504 h, 21 d incubation, read-out: MIC Mtb. 331/88 21 d): 32 µM (≈ 11.3 µg/mL) | SI for Candida sp. [5]: inactive | MIC ([6]; Trichophyton interdigitale, 445, 72 h, read-out: MIC TI 72 h): 125 µM (≈ 44.3 µg/mL) | MIC ([6]; Trichophyton interdigitale, 445, 120 h, read-out: MIC TI 120 h): 125 µM (≈ 44.3 µg/mL) | MIC ([6]; Trichophyton interdigitale, 445, read-out: MIC for T. interdigitale): 125 µM (≈ 44.3 µg/mL) | MIC ([7]; 6509/96, 168 h, 7 d incubation, read-out: MIC M. kansasii 6509/96 7 d): 8 µM (≈ 2.84 µg/mL) | MIC ([7]; 6509/96, 336 h, 14 d incubation, read-out: MIC M. kansasii 6509/96 14 d): 16 µM (≈ 5.67 µg/mL) | MIC ([7]; 6509/96, 504 h, 21 d incubation, read-out: MIC M. kansasii 6509/96 21 d): 32 µM (≈ 11.3 µg/mL) | MIC [8]: > 500 µM | MIC [9]: > 500 µM | MIC ([10]; 330/88, 336 h, 14 d incubation, read-out: MIC M. avium 330/88 14 d): 125 µM (≈ 44.3 µg/mL) | MIC ([10]; 330/88, 504 h, 21 d incubation, read-out: MIC M. avium 330/88 21 d): 250 µM (≈ 88.6 µg/mL) | MIC [11]: 62.5 µM (≈ 22.1 µg/mL) | MIC [12]: > 500 µM | MIC [13]: > 500 µM | MIC [14]: 62.5 µM (≈ 22.1 µg/mL) | MIC KP-E 24 h ([15]; 24 h): >500 µM | MIC KP-E 48 h ([15]; 48 h): >500 µM | MIC [16]: 500 µM (≈ 177 µg/mL) | MIC KP 24 h ([17]; 24 h): >500 µM | MIC KP 48 h ([17]; 48 h): >500 µM | MIC [18]: > 500 µM | MIC ([19]; M. tuberculosis and both M. kansasii strains only, read-out: MIC, M. tuberculosis and both M. kansasii strains): ≤ 32 µM | MIC ([19]; range over all four mycobacterial strains and incubation times, read-out: MIC, M. tuberculosis and NTM): 8 to 250 µM (≈ 2.84 to 88.6 µg/mL) | MIC [20]: > 500 µM | minimum inhibitory concentrations (MICs) [21]: 100 to 250 µg/mL | MIC ([22]; 235/80, 168 h, 7 d incubation, read-out: MIC M. kansasii 235/80 7 d): 8 µM (≈ 2.84 µg/mL) | MIC ([22]; 235/80, 336 h, 14 d incubation, read-out: MIC M. kansasii 235/80 14 d): 16 µM (≈ 5.67 µg/mL) | MIC ([22]; 235/80, 504 h, 21 d incubation, read-out: MIC M. kansasii 235/80 21 d): 32 µM (≈ 11.3 µg/mL)
